Measured values: patent publication US5258515A, “Aqueous solutions of sodium salts of trimercapto-s-triazine, their preparation and use” (Degussa Aktiengesellschaft, priority 1989, dated 1993)
Where a name gives a salt, the structure may show the parent alone. Read-outs that look alike come from different tables or passages of the source. Each block holds one molecule with its values, some of them ahead of it.

Experiments:
[1] = Solubility / saturation concentration of TMT-Na salts and salt mixtures in water; assay type: physicochemical
[2] = as above; assay type: physicochemical; conditions: for Solubility of the TMT-Na salt/-salt mixture / solubility: water; for solubility: read-out: saturation concentration of TMT-Na3 in water; for solubility in water: temperature not given
Excerpt: That is, in each case, more than 2 hydrogen atoms of the TMT-H3 are replaced.

[3] = Stability in storage of aqueous solutions (crystallization); assay type: physicochemical; conditions: in words
Experimental: Aqueous solutions of TMT-Na3 are commercially available and are used for separating heavy metal from the flue gas wash water of garbage incinerators, waste water in the mining industry and in galvanotechnical and chemical plants. The commercially available, aqueous TMT-NA3 solution has a concentration of 15% by weight (Publication TMT 15 of the Degussa company, 3/1986). The saturation concentration of TMT-Na3 in water is approximately 16% by weight at 0° C. and approximately 25% by weight at 20° C. […] Such a crystallization makes it considerably more difficult to handle the product. If heat-insulated or heated transport and storage containers were used, TMT-Na3 solutions with a higher concentration could be considered as a commercially supplied form of this product; however, this would make the product and its use more expensive.
The object of the present invention is to provide aqueous solutions of sodium salts of trimercapto-s-triazine which have a higher concentration of active substance than current commercially available solutions. Increasing the concentration makes possible a reduction in transportation and storage costs. The solutions should be stable in storage, that is, no crystallization of the active substance or of its salt should occur during storage. […]

[4] = Titration curve of TMT-H3; assay type: physicochemical
Excerpt: In the sequence named, the jump are to be associated with the salts TMT-Na, TMT-Na2 and TMT-Na3.

[5] = disclosure of DE-AS 22 40 549; cited from earlier work

- solubility in water (in words) ([2]; in words): slightly soluble in water
- solubility in water [2]: approximately 3 % by weight
- precipitation from solution ([1]; less than 2 hydrogen atoms of trimercapto-s-triazine replaced by Na ions): precipitates
SMILES: Sc1nc(S)nc(S)n1 [TMT-Na, monosodium salt of trimercapto-s-triazine]
- solubility in water [5]: approximately 3 % by weight

- solubility in water (in words) ([2]; in words): unusually high water solubility
SMILES: Sc1nc(S)nc(S)n1 [TMT-Na2, disodium salt of trimercapto-s-triazine]
- solubility relative to that of TMT-Na3 ([2]; in words, comparison with TMT-Na3): considerably above that of the readily soluble TMT-Na3

More lines, now with the values behind:

SMILES: Sc1nc(S)nc(S)n1 [TMT-Na2.6 H2 0, hexahydrate of trimercapto-s-triazine disodium salt]
- solubility in water (in words) ([1]; in words, disodium salt): extraordinarily high solubility in water

SMILES: Sc1nc(S)nc(S)n1.[Na].[Na].[Na] [TMT-Na3, trimercapto-s-triazine trisodium salt]
- solubility of TMT-Na3 ([2]; 0° C.): approximately 0.78 mole TMT-Na3 per liter of H2 0
- Solubility of the TMT-Na salt/-salt mixture ([2]; 0° C.): 0.78 mole TMT salt/1 H2 O
- solubility of TMT-Na3 ([2]; 20° C.): approximately 1.37 mole TMT-Na3 per liter of H2 0
- Solubility of the TMT-Na salt/-salt mixture ([2]; 20° C.): 1.37 mole TMT salt/1 H2 O
- solubility in water (in words) ([2]; in words): good solubility
- solubility ([2]; 0° C.): ~160 mg/mL
- solubility ([2]; 20° C.): ~250 mg/mL
- stability in storage (crystallization) [3]: crystallizes if the concentration is higher

SMILES: Sc1nc(S)nc(S)n1 [TMT-H3, Trimercapto-s-triazine]
- solubility in water (in words) ([2]; in words): practically insoluble in water
- solubility in water [2]: less than 0.5 % by weight
- first jump of the titration curve ([4]; associated with TMT-Na): around 7 pH
- second jump of the titration curve ([4]; associated with TMT-Na2): around 10.5 pH
- third jump of the titration curve ([4]; associated with TMT-Na3): around 12.5 pH
